Test results taken from ChEMBL document CHEMBL1125842, “Synthesis and anticonvulsant activity of 2-iminohydantoins” (J Med Chem, 1991).
Activity calls are given as the source filed them. The rule behind the calls is not given here.

What was measured:
Mus musculus [1] = assay: Anticonvulsant activity was measured from mES test by delivering the drug intraperitoneally after 0.5 hr; type: functional; conditions: ip
Mus musculus [2] = assay: Anticonvulsant activity was measured from scMET test by delivering the drug intraperitoneally after 0.5 hr; type: functional; conditions: ip
[3] = Neurotoxicity was determined from the rotarod ataxia test for the compound by the intraperitoneal administration.; type: toxicity, organism-based; conditions: mouse, in vivo, ip
Mus musculus [4] = assay: ED50 was evaluated from scMET test in mice by delivering intraperitoneally and the value was determined at peak time effect or peak neurologic effect.; type: functional; conditions: ip
Mus musculus [5] = assay: ED50 was evaluated from MES test in mice by delivering intraperitoneally and the value was determined at peak time effect or peak neurologic effect.; type: functional; conditions: ip
[6] = Protective index was determined as ratio of TD50 to ED50(MES method); type: functional
[7] = Protective index was determined as ratio of TD50 to ED50(scMET method); type: functional
Mus musculus [8] = organism: Mus musculus; assay: animal or person; conditions: ip
Mus musculus [9] = organism: Mus musculus
Mus musculus [10] = organism: Mus musculus; remark: listed apart in the source
Description: ED50 was evaluated from scMET test in mice by delivering intraperitoneally and the value was determined at peak time effect or peak neurologic effect; NA-Not active

Mus musculus [11] = assay: Anticonvulsant activity was measured from mES test by delivering the drug intraperitoneally after 0.5 hr; NA-Not active; type: functional, organism-based

| SMILES | ED50 (Mus musculus [1]) [mg/kg] | ED50 (Mus musculus [2]) [mg/kg] | ED50 (Mus musculus [4]) [mg/kg] | ED50 (Mus musculus [5]) [mg/kg] | other results |
| --- | --- | --- | --- | --- | --- |
| NC1=NC(=O)CN1C(=O)OCc1ccccc1 | 459 |  |  |  |  |
| CC(C)C[C@@H]1N=C(N)NC1=O |  | > 300 |  |  |  |
| NC1=NC(=O)[C@H](Cc2ccccc2)N1C(=O)OCc1ccccc1 | 213 | > 1000 |  |  |  |
| CC(C)C[C@H]1C(=O)N=C(N)N1C(=O)OCc1ccccc1 | 44.5 | 92.8 | 141 | 98.6 | TD50 [3]: 350 mg/kg; PI [6]: 3.5; PI [7]: 2.5 |
| NC1=NC(=O)[C@H](Cc2ccccc2)N1 | 97.8 | > 1000 |  |  |  |
| CC(C)C[C@@H]1C(=O)N=C(N)N1C(=O)OCc1ccccc1 |  | 547 |  |  |  |
| CCC1(C)CC(=O)NC1=O (stereo not given) [ETHOSUXIMIDE] |  |  | 130 | > 1000 | TD50 (Mus musculus [8]): 441 mg/kg |
| CCC1(c2ccccc2)NC(=O)N(C)C1=O (stereo not given) [MEPHENYTOIN] |  |  | 31 | 61 |  |
| NC(=O)NC(=O)Cc1ccccc1 [PHENACEMIDE] |  |  |  | 87 | PI [6]: 4.8; PI [7]: 3.6 |
| CCC1(c2ccccc2)C(=O)NC(=O)NC1=O [PHENOBARBITAL] |  |  | 13.2 | 21.8 | TD50 (Mus musculus [8]): 69 mg/kg |
| O=C1NC(=O)C(c2ccccc2)(c2ccccc2)N1 [PHENYTOIN] | 2.3 |  |  |  | ED50 (Mus musculus [9]): inactive; ED50 (Mus musculus [10]): inactive |
| O=C1NC(=S)NC1(c1ccccc1)c1ccccc1 [THIOPHENYTOIN] |  | 1340 |  |  | ED50 (Mus musculus [11]): inactive |
